Test results: the supplement of paper PMC10307832

How the values were obtained:
Experiment in all cases: relative viability (nuclei count vs DMSO), 5 days (fraction); higher = more cells survive
VX-11e + Tozasertib = compound: CC1=CN=C(N=C1C2=CNC(=C2)C(=O)N[C@H](CO)C3=CC(=CC=C3)Cl)NC4=C(C=C(C=C4)F)Cl [VX-11e] + Cc1cc(Nc2cc(N3CCN(C)CC3)nc(Sc3ccc(NC(=O)C4CC4)cc3)n2)n[nH]1 [Tozasertib] (partner 0.1 µM)
Procedure, shortened: (§1)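 Relative viability was taken as the ratio of nuclei in treated wells to nuclei in vehicle wells. Lung cancer cell lines in 1536-well plates received compounds by pin tool one day after seeding, either one drug alone or a fixed anchor-drug dose plus five library-drug doses (not always all listed) in √10 steps. Nuclei were counted on 4× images after 5 days of treatment, and values are medians of duplicate plates.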

VX-11e + Dasatinib = compound: CC1=CN=C(N=C1C2=CNC(=C2)C(=O)N[C@H](CO)C3=CC(=CC=C3)Cl)NC4=C(C=C(C=C4)F)Cl [VX-11e] + Cc1nc(Nc2ncc(C(=O)Nc3c(C)cccc3Cl)s2)cc(N2CCN(CCO)CC2)n1 [Dasatinib] (partner 0.075 µM)
Procedure, shortened: as §1

VX-11e + Luminespib = compound: CC1=CN=C(N=C1C2=CNC(=C2)C(=O)N[C@H](CO)C3=CC(=CC=C3)Cl)NC4=C(C=C(C=C4)F)Cl [VX-11e] + CCNC(=O)c1noc(-c2cc(C(C)C)c(O)cc2O)c1-c1ccc(CN2CCOCC2)cc1 [Luminespib] (partner 0.01 µM)
Procedure, shortened: as §1

VX-11e + Phenformin = compound: CC1=CN=C(N=C1C2=CNC(=C2)C(=O)N[C@H](CO)C3=CC(=CC=C3)Cl)NC4=C(C=C(C=C4)F)Cl [VX-11e] + N=C(N)NC(=N)NCCc1ccccc1 [Phenformin] (partner 250 µM)
Procedure, shortened: as §1

VX-11e + OSI-027 = compound: CC1=CN=C(N=C1C2=CNC(=C2)C(=O)N[C@H](CO)C3=CC(=CC=C3)Cl)NC4=C(C=C(C=C4)F)Cl [VX-11e] + COc1cccc2cc(-c3nc([C@H]4CC[C@H](C(=O)O)CC4)n4ncnc(N)c34)[nH]c12 [OSI-027] (partner 0.5 µM)
Procedure, shortened: as §1

VX-11e + Foretinib = compound: CC1=CN=C(N=C1C2=CNC(=C2)C(=O)N[C@H](CO)C3=CC(=CC=C3)Cl)NC4=C(C=C(C=C4)F)Cl [VX-11e] + COc1cc2c(Oc3ccc(NC(=O)C4(C(=O)Nc5ccc(F)cc5)CC4)cc3F)ccnc2cc1OCCCN1CCOCC1 [Foretinib] (partner 0.25 µM)
Procedure, shortened: as §1

VX-11e = compound: CC1=CN=C(N=C1C2=CNC(=C2)C(=O)N[C@H](CO)C3=CC(=CC=C3)Cl)NC4=C(C=C(C=C4)F)Cl [VX-11e]
Procedure, shortened: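 Cells of lung cancer lines were placed in 1536-well plates and kept overnight at 37 °C. Pinning then delivered five library-drug doses (not always all listed), spaced by √10, onto plates anchored with vehicle, and the cells were left 5 days without changing medium. One step fixed, permeabilised and stained them with Hoechst, and MetaXpress counted nuclei in 4× images. Viability, as a median over plates, is treated-well nuclei divided by vehicle-well nuclei, with acceptance only at control CV below 25% and at least one doubling.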

VX-11e + Linsitinib = compound: CC1=CN=C(N=C1C2=CNC(=C2)C(=O)N[C@H](CO)C3=CC(=CC=C3)Cl)NC4=C(C=C(C=C4)F)Cl [VX-11e] + C[C@]1(O)C[C@@H](c2nc(-c3ccc4ccc(-c5ccccc5)nc4c3)c3c(N)nccn32)C1 [Linsitinib] (partner 1 µM)
Procedure, shortened: as §1

VX-11e + Pictilisib = compound: CC1=CN=C(N=C1C2=CNC(=C2)C(=O)N[C@H](CO)C3=CC(=CC=C3)Cl)NC4=C(C=C(C=C4)F)Cl [VX-11e] + CS(=O)(=O)N1CCN(Cc2cc3nc(-c4cccc5[nH]ncc45)nc(N4CCOCC4)c3s2)CC1 [Pictilisib] (partner 1 µM)
Procedure, shortened: as §1

VX-11e + Lapatinib = compound: CC1=CN=C(N=C1C2=CNC(=C2)C(=O)N[C@H](CO)C3=CC(=CC=C3)Cl)NC4=C(C=C(C=C4)F)Cl [VX-11e] + CS(=O)(=O)CCNCc1ccc(-c2ccc3ncnc(Nc4ccc(OCc5cccc(F)c5)c(Cl)c4)c3c2)o1 [Lapatinib] (partner 2 µM)
Procedure, shortened: as §1

VX-11e + Bortezomib = compound: CC1=CN=C(N=C1C2=CNC(=C2)C(=O)N[C@H](CO)C3=CC(=CC=C3)Cl)NC4=C(C=C(C=C4)F)Cl [VX-11e] + CC(C)C[C@H](NC(=O)[C@H](Cc1ccccc1)NC(=O)c1cnccn1)B(O)O [Bortezomib] (partner 0.002 µM)
Procedure, shortened: as §1

VX-11e + Crizotinib = compound: CC1=CN=C(N=C1C2=CNC(=C2)C(=O)N[C@H](CO)C3=CC(=CC=C3)Cl)NC4=C(C=C(C=C4)F)Cl [VX-11e] + C[C@@H](Oc1cc(-c2cnn(C3CCNCC3)c2)cnc1N)c1c(Cl)ccc(F)c1Cl [Crizotinib] (partner 1 µM)
Procedure, shortened: as §1

VX-11e + Olaparib = compound: CC1=CN=C(N=C1C2=CNC(=C2)C(=O)N[C@H](CO)C3=CC(=CC=C3)Cl)NC4=C(C=C(C=C4)F)Cl [VX-11e] + O=C(c1cc(Cc2n[nH]c(=O)c3ccccc23)ccc1F)N1CCN(C(=O)C2CC2)CC1 [Olaparib] (partner 8 µM)
Procedure, shortened: as §1

VX-11e + Alpelisib = compound: CC1=CN=C(N=C1C2=CNC(=C2)C(=O)N[C@H](CO)C3=CC(=CC=C3)Cl)NC4=C(C=C(C=C4)F)Cl [VX-11e] + Cc1nc(NC(=O)N2CCC[C@H]2C(N)=O)sc1-c1ccnc(C(C)(C)C(F)(F)F)c1 [Alpelisib] (partner 2 µM)
Procedure, shortened: as §1

VX-11e + Navitoclax = compound: CC1=CN=C(N=C1C2=CNC(=C2)C(=O)N[C@H](CO)C3=CC(=CC=C3)Cl)NC4=C(C=C(C=C4)F)Cl [VX-11e] + CC1(C)CCC(c2ccc(Cl)cc2)=C(CN2CCN(c3ccc(C(=O)NS(=O)(=O)c4ccc(N[C@H](CCN5CCOCC5)CSc5ccccc5)c(S(=O)(=O)C(F)(F)F)c4)cc3)CC2)C1 [Navitoclax] (partner 0.5 µM)
Procedure, shortened: as §1

Work on NCI-H1623 yielded a relative viability (VX-11e + Tozasertib; first compound 0.04 µM) of 0.396, a relative viability (VX-11e + Tozasertib; first compound 0.1265 µM) of 0.426 and a relative viability (VX-11e + Tozasertib; first compound 0.4 µM) of 0.418. The relative viability (VX-11e + Tozasertib; first compound 1.265 µM) was 0.38, the relative viability (VX-11e + Tozasertib; first compound 4 µM) was 0.23 and the relative viability (VX-11e + Dasatinib; first compound 0.04 µM) was 0.526. For the same cell line, the relative viability (VX-11e + Dasatinib; first compound 0.1265 µM) was 0.624, the relative viability (VX-11e + Dasatinib; first compound 0.4 µM) was 0.369 and the relative viability (VX-11e + Dasatinib; first compound 1.265 µM) was 0.457. It also gave a relative viability (VX-11e + Dasatinib; first compound 4 µM) of 0.398, a relative viability (VX-11e + Luminespib; first compound 0.04 µM) of 0.434 and a relative viability (VX-11e + Luminespib; first compound 0.1265 µM) of 0.492. It also gave a relative viability (VX-11e + Luminespib; first compound 0.4 µM) of 0.3, a relative viability (VX-11e + Luminespib; first compound 1.265 µM) of 0.48 and a relative viability (VX-11e + Luminespib; first compound 4 µM) of 0.337. For the same cell line, the relative viability (VX-11e + Phenformin; first compound 0.04 µM) was 0.53, the relative viability (VX-11e + Phenformin; first compound 0.1265 µM) was 0.623 and the relative viability (VX-11e + Phenformin; first compound 0.4 µM) was 0.433. For the same cell line, the relative viability (VX-11e + Phenformin; first compound 1.265 µM) was 0.546, the relative viability (VX-11e + Phenformin; first compound 4 µM) was 0.409 and the relative viability (VX-11e + OSI-027; first compound 0.04 µM) was 0.43. For the same cell line, the relative viability (VX-11e + OSI-027; first compound 0.1265 µM) was 0.446, the relative viability (VX-11e + OSI-027; first compound 0.4 µM) was 0.423 and the relative viability (VX-11e + OSI-027; first compound 1.265 µM) was 0.307. The relative viability (VX-11e + OSI-027; first compound 4 µM) was 0.278, the relative viability (VX-11e + Foretinib; first compound 0.04 µM) was 0.856 and the relative viability (VX-11e + Foretinib; first compound 0.1265 µM) was 0.934. For the same cell line, the relative viability (VX-11e + Foretinib; first compound 0.4 µM) was 0.588, the relative viability (VX-11e + Foretinib; first compound 1.265 µM) was 0.619 and the relative viability (VX-11e + Foretinib; first compound 4 µM) was 0.473. For the same cell line, the relative viability (VX-11e; 0.04 µM) was 0.967, the relative viability (VX-11e; 0.1265 µM) was 1.04 and the relative viability (VX-11e; 0.4 µM) was 0.724. It also gave a relative viability (VX-11e; 1.265 µM) of 0.678 and a relative viability (VX-11e; 4 µM) of 0.561.
EBC-1 was tested, and the relative viability (VX-11e + Linsitinib; first compound 0.04 µM) was 0.954, the relative viability (VX-11e + Linsitinib; first compound 0.1265 µM) was 0.872 and the relative viability (VX-11e + Linsitinib; first compound 0.4 µM) was 0.494. The relative viability (VX-11e + Linsitinib; first compound 1.265 µM) was 0.371, the relative viability (VX-11e + Linsitinib; first compound 4 µM) was 0.19 and the relative viability (VX-11e + Pictilisib; first compound 0.04 µM) was 0.494. The relative viability (VX-11e + Pictilisib; first compound 0.1265 µM) was 0.436, the relative viability (VX-11e + Pictilisib; first compound 0.4 µM) was 0.378 and the relative viability (VX-11e + Pictilisib; first compound 1.265 µM) was 0.201. For the same cell line, the relative viability (VX-11e + Pictilisib; first compound 4 µM) was 0.162, the relative viability (VX-11e + Lapatinib; first compound 0.04 µM) was 0.207 and the relative viability (VX-11e + Lapatinib; first compound 0.1265 µM) was 0.236. It also gave a relative viability (VX-11e + Lapatinib; first compound 0.4 µM) of 0.19, a relative viability (VX-11e + Lapatinib; first compound 1.265 µM) of 0.235 and a relative viability (VX-11e + Lapatinib; first compound 4 µM) of 0.177. It also gave a relative viability (VX-11e + Bortezomib; first compound 0.04 µM) of 0.512, a relative viability (VX-11e + Bortezomib; first compound 0.1265 µM) of 0.528 and a relative viability (VX-11e + Bortezomib; first compound 0.4 µM) of 0.599. For the same cell line, the relative viability (VX-11e + Bortezomib; first compound 1.265 µM) was 0.576, the relative viability (VX-11e + Bortezomib; first compound 4 µM) was 0.239 and the relative viability (VX-11e + Crizotinib; first compound 0.04 µM) was 0.204. It also gave a relative viability (VX-11e + Crizotinib; first compound 0.1265 µM) of 0.182, a relative viability (VX-11e + Crizotinib; first compound 0.4 µM) of 0.163 and a relative viability (VX-11e + Crizotinib; first compound 1.265 µM) of 0.198. For the same cell line, the relative viability (VX-11e + Crizotinib; first compound 4 µM) was 0.18, the relative viability (VX-11e + Olaparib; first compound 0.04 µM) was 0.749 and the relative viability (VX-11e + Olaparib; first compound 0.1265 µM) was 0.72. For the same cell line, the relative viability (VX-11e + Olaparib; first compound 0.4 µM) was 0.707, the relative viability (VX-11e + Olaparib; first compound 1.265 µM) was 0.66 and the relative viability (VX-11e + Olaparib; first compound 4 µM) was 0.192. It also gave a relative viability (VX-11e + Alpelisib; first compound 0.04 µM) of 0.816, a relative viability (VX-11e + Alpelisib; first compound 0.1265 µM) of 0.766 and a relative viability (VX-11e + Alpelisib; first compound 0.4 µM) of 0.632. It also gave a relative viability (VX-11e + Alpelisib; first compound 1.265 µM) of 0.693, a relative viability (VX-11e + Alpelisib; first compound 4 µM) of 0.23 and a relative viability (VX-11e + Navitoclax; first compound 0.04 µM) of 0.362. It also gave a relative viability (VX-11e + Navitoclax; first compound 0.1265 µM) of 0.474, a relative viability (VX-11e + Navitoclax; first compound 0.4 µM) of 0.325 and a relative viability (VX-11e + Navitoclax; first compound 1.265 µM) of 0.271. It also gave a relative viability (VX-11e + Navitoclax; first compound 4 µM) of 0.168, a relative viability (VX-11e + Foretinib; first compound 0.04 µM) of 0.104 and a relative viability (VX-11e + Foretinib; first compound 0.1265 µM) of 0.107. The relative viability (VX-11e + Foretinib; first compound 0.4 µM) was 0.0992, the relative viability (VX-11e + Foretinib; first compound 1.265 µM) was 0.111 and the relative viability (VX-11e + Foretinib; first compound 4 µM) was 0.109. It also gave a relative viability (VX-11e; 0.04 µM) of 1.06, a relative viability (VX-11e; 0.1265 µM) of 1.01 and a relative viability (VX-11e; 0.4 µM) of 0.765. The relative viability (VX-11e; 1.265 µM) was 0.77 and the relative viability (VX-11e; 4 µM) was 0.221.
